# Assay results as given in PMC2246472, “Bombesin and bombesin antagonists: studies in Swiss 3T3 cells and human small cell lung cancer” (British Journal of Cancer, 1988).
# Read-outs that look alike come from different tables or passages of the source.
# Key:
# [1] = target: T1, bombesin/GRP receptor (Mus musculus, UniProt P21729); conditions: Swiss 3T3 cells; ref Zachary & Rozengurt, 1985a; cited from earlier work
# T1 construct: endogenous in cells; host or cells: Swiss 3T3 murine fibroblasts (intact, quiescent/confluent)
# Excerpt: Br. J. Cancer (1988), 57, 579-586 ? The Macmillan Press Ltd., 1988 Bombesin and bombesin antagonists: Studies in Swiss 3T3 cells and human small cell lung cancer* P.J. Woll & E. Rozengurt Imperial Cancer Research Fund, PO Box 123, Lincoln's Inn Fields, London WC2A 3PX, UK.
# [2] = test system: H69 SCLC cell line; test: Growth of H69 SCLC cell line in serum-free HITES medium (Coulter counter); type: cell-based, human; conditions: peptide A at 150 pM (so in the source), HITES medium + 0.25% bovine serum albumin, inoculum 5 x 10^4 cells, mean of 3; restored by washing; Figure 3 left
# [3] = test system: Ca2+ mobilization; conditions: Swiss 3T3 cells; ref Mendoza et al., 1986; cited from earlier work
# Excerpt: (§1) Br. J. Cancer (1988), 57, 579-586 ? The Macmillan Press Ltd., 1988 Bombesin and bombesin antagonists: Studies in Swiss 3T3 cells and human small cell lung cancer* P.J. Woll & E. Rozengurt Imperial Cancer Research Fund, PO Box 123, Lincoln's Inn Fields, London WC2A 3PX, UK. Summary Bombesins are potent growth factors for murine Swiss 3T3 cells. Using these cells in chemically defined conditions we have been able to characterise the bombesin receptor and the early signals preceding DNA synthesis. We describe two substance P analogues [DArg1, DPro2, DTrp7 9, Leu1 ] substance P and [DArg1, DPhe5, ...
# [4] = test system: EGF receptor; conditions: Swiss 3T3 cells; ref Zachary et al., 1986; cited from earlier work
# Excerpt: as §1
# [5] = test system: GRP-stimulated mitogenesis in Swiss 3T3 cells; conditions: ref Zachary & Rozengurt, 1985a; cited from earlier work
# Excerpt: as §1
# [6] = target: T2, Mr 75,000-85,000 protein component of the bombesin/GRP receptor (Mus musculus, UniProt P21729); conditions: Swiss 3T3 cells; ref Zachary & Rozengurt, 1987a; cited from earlier work
# T2 construct: endogenous in cells; host or cells: Swiss 3T3 murine fibroblasts (intact, quiescent/confluent)
# Excerpt: as §1
# [7] = test system: Na+/K+ pump; conditions: Swiss 3T3 cells; ref Mendoza et al., 1986; cited from earlier work
# Excerpt: as §1
# [8] = test system: Swiss 3T3 cells; conditions: ref Zachary & Rozengurt, 1985a; cited from earlier work
# Excerpt: as §1
# [9] = test system: c-fos and c-myc expression; conditions: Swiss 3T3 cells; ref Rozengurt & Sinnett-Smith, 1987; cited from earlier work
# Excerpt: as §1
# [10] = test system: protein kinase C (80K phosphorylation); conditions: Swiss 3T3 cells; ref Zachary et al., 1986; cited from earlier work
# Excerpt: as §1
# [11] = test system: vasopressin-stimulated DNA synthesis in Swiss 3T3 cells; conditions: ref Zachary & Rozengurt, 1986, Corps et al., 1985; cited from earlier work
# Excerpt: as §1
# [12] = test system: pancreatic acinar cells; conditions: ref Jensen et al., 1984; cited from earlier work
# [13] = test system: Swiss 3T3 cells; set-up: method as in 2 sources, one per row (each row's own in cited_ref): ref Rozengurt & Sinnett-Smith, 1983 ||| ref Zachary & Rozengurt, 1985a; conditions: serum-free medium, cited from earlier work
# T1 sequence (P21729 whole entry): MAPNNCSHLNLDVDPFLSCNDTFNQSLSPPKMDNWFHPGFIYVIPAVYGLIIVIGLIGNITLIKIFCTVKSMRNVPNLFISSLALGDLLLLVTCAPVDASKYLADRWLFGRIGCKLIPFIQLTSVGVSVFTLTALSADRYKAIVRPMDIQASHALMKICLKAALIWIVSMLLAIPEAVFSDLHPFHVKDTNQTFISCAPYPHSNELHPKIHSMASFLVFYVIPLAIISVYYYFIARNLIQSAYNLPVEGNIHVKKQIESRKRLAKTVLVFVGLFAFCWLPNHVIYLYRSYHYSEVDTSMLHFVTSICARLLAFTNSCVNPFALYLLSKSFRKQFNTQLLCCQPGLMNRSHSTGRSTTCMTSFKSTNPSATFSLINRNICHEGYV
# T2 sequence (P21729 whole entry): as above
compound,measurement,setting,value
"CCCC(=O)O[C@@H]1[C@@H](C)[C@@]2(O)[C@@H](C=C(CO)C[C@]3(O)C(=O)C(C)=C[C@@H]23)[C@@H]2C(C)(C)[C@]12OC(=O)CCC [PBt2, phorbol 12,13, dibutyrate, reference compound]",inhibition of [125I]GRP binding by other mitogens and neuropeptides,[1],not inhibited
"Arg Pro Lys Pro Gln Gln Phe Phe Gly Leu Met NH2 [substance P, tachykinin with minimal structural homology with bombesin, reference compound]",inhibition of [125I]GRP binding by other mitogens and neuropeptides,[1],not inhibited
"DArg Dpro Lys Pro Gln Gln DTrp Phe DTrp Leu Leu NH2 [peptide A, [DArg1, DPro2, DTrp7,9, Leu11] substance P]",effect on growth of H69 cells,[2],suppressed
same,effect on [125I]GRP binding (Table III),[1],reversibly blocks
same,effect on Ca2+ mobilization (Table III),[3],reversibly blocks
same,effect on EGF transmodulation (Table III),[4],reversibly blocks
same,effect on stimulation of DNA synthesis by bombesin-like peptides (Table III),[5],reversibly blocks
same,"effect on cross-linking of [125I]GRP to the Mr 75,000-85,000 glycoprotein (Table III)",[6],reversibly blocks
same,effect on activation of Na+/K+ pump (Table III),[7],reversibly blocks
same,"effect on DNA synthesis stimulated by PDGF, EGF, phorbol esters and c-AMP-increasing agents (Table III)",[8],is not affected
same,effect on increase in c-fos and c-myc expression (Table III),[9],reversibly blocks
same,effect on 80K phosphorylation (Table III),[10],reversibly blocks
same,effect on stimulation of DNA synthesis by vasopressin (Table III),[11],reversibly blocks
same,effect on secretory effects of bombesin in pancreatic acinar cells,[12],block the secretory effects of bombesin
EGF: epidermal growth factor,inhibition of [125I]GRP binding by other mitogens and neuropeptides,[1],not inhibited
PDGF,inhibition of [125I]GRP binding by other mitogens and neuropeptides,[1],not inhibited
insulin,inhibition of [125I]GRP binding by other mitogens and neuropeptides,[1],not inhibited
"pGlu Gin Arg Leu Gly Asn Gin Trp Ala Val Gly His Leu Met NH2 [bombesin, tetradecapeptide first isolated from amphibian skin]",EC50,"[13]; absence of other growth-promoting agents, ref Rozengurt & Sinnett-Smith, 1983, read-out: bombesin concentration giving half-maximal effect on DNA synthesis",1 nM
same,EC50,"[13]; in the presence of insulin, ref Zachary & Rozengurt, 1985a, read-out: bombesin concentration required to produce a half-maximal response (DNA synthesis) with insulin",0.3 nM
"vasoactive intestinal peptide [VIP, reference compound]",inhibition of [125I]GRP binding by other mitogens and neuropeptides,[1],not inhibited
vasopressin [reference compound],inhibition of [125I]GRP binding by other mitogens and neuropeptides,[1],not inhibited
